# [ ]: non-standard residue; d: D form. Aib = CC(C)(N)C(=O)O
# How the values were obtained:
# C57BL/6 mice = experiment: DSS-induced colitis in mice; assay type: in vivo; details: i.p.
# Procedure: Colitis is induced by treatment of C57BL/6 mice with 2.5% dextran sulfate (DSS) in the drinking water for 7 days. Mice are treated with the test item. Weight is monitored daily. At day 8 mice are scarified. A haemocult test is performed. The size of the colon is measured. Colitis is determined using a scoring system in H&E stains. mRNA expression in colon samples is analyzed by RT-qPCR.
# [1] = tested on: human keratinocytes (HaCaT); experiment: Gene expression of pro-inflammatory cytokines (RT-qPCR) in human keratinocytes (HaCaT); assay type: cell-based; details: HaCaT keratinocytes; RT-qPCR
# Source text: (§1) Cells were activated with PMA/Ionomycin and treated with PBS, α-MSH, K(D)PT and Examples 3, 8 and 9, respectively, at a concentration of 10^−9 M. Values are normalized to β-actin and are shown relative to the gene expression in PBS-stimulated cells.
# (§2) Primary T-cells were isolated from peripheral blood from healthy volunteers and from secondary lymphatic organs from naïve C57BL/6 mice, respectively. The cells were stimulated with phorbol-12-myristate-13-acetate (PMA)/Ionomycin and interferon-gamma (IFN-γ), respectively, for 48 h to activate the cells. The activated cells release pro-inflammatory cytokines. In parallel a human (HaCaT) keratinocyte cell line was activated with PMA/Ionomycin and IFN-γ, respectively, too. […] At the same time release of anti-inflammatory IL-10 was inhibited. Two days after addition of PMA/Ionomycin and IFN-γ, respectively, the induction of IL-1 secretion was determined in the supernatant for proving that the cells are activated. […] The anti-inflammatory properties of the tripeptides were determined 48 h and 72 h following stimulation. A 13-plex-system based FACS analysis was used for showing the reduced secretion of pro-inflammatory cytokines in the supernatant. Data for IL-1, IL-2, IL-6, IL-12p70 IL-17, IFN-γ and TNF-α are considered to be most relevant. Thus, analysis of the anti-inflammatory properties of the tripeptides is preferably based on the results obtained for these analytes. […] Using this method the gene expression of pro-inflammatory markers like IL-6, IL-17, IFN-γ and TNF-α was determined.
# (§3) In a third experiment murine and human T cells and HaCaT cells were stimulated with PMA/Ionomycin and treated with Examples 14, 15, 16 and 17 at 10^−7 M, 10^−9 M and 10^−11 M. Cytokine concentrations (IFN-γ, IL-17 and IL-10 for T cells and IFN-γ for HaCat) were assessed in the supernatants using the Luminex technology. Expression of genes coding for Il-1β, IL-6 and TNF-α was determined. […] Moreover, concentrations of pro-inflammatory cytokines IFN-γ and IL-17 was reduced in the supernatants whereas the concentration of anti-inflammatory cytokine IL-10 was increased.
# primary murine T cells = experiment: Gene expression of pro-inflammatory cytokines (RT-qPCR) in primary murine T cells; assay type: cell-based, C57BL/6 mice; details: RT-qPCR
# Source text: as §1, §2, §3
substance,measurement,setting,value
H-Phe-Pro-[Aib]-OH [Example 13],colon size,C57BL/6 mice,partly normalized
same,disease in histology,C57BL/6 mice,amelioration
same,"mRNA expression of LY-6G, MPO, IFN-γ, IL-6 and TNF-α (colon)",C57BL/6 mice; compared to vehicle control,reduced
same,weight loss,C57BL/6 mice; compared to vehicle control,decreased
same,gene expression of pro-inflammatory cytokines,[1],reduced expression
same,"mRNA expression of IL-6, IL-17, IFN-γ and TNF-α",primary murine T cells,reduced expression

# From patent US10954269B2, “Anti-inflammatory tripeptides” (Dr. August Wolff Gmbh & Co. KG Arzneimittel, priority 2013, dated 2021)
